The results in this text go back to patent US12060347B2 (BRISTOL-MYERS SQUIBB COMPANY, priority 2016, dated 2024).

In the assay the target is T1, human PAR4 (Homo sapiens, UniProt Q96RI0).
T1 construct: expressed in transfected cells; host or cells: HEK293 PAR4 Clone 1.2A (BMS Arctic ID 383940)
T1 sequence (Q96RI0 18-385): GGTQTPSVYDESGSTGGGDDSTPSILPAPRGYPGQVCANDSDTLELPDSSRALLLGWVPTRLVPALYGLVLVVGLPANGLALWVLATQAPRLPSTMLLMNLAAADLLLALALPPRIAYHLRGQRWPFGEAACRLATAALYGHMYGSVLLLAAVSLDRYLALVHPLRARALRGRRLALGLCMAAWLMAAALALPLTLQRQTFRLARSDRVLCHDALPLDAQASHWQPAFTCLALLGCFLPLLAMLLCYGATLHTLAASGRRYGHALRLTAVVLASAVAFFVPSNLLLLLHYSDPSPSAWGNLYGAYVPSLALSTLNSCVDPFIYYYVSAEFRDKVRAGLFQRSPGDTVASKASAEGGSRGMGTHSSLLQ
The assay can be described thus: PAR4 FLIPR assay: antagonism of agonist-peptide-induced calcium mobilization in PAR4-expressing HEK293 cells. It counts as cell-based. The conditions noted are these: H-Ala-Phe(4-F)-[…]NH2-induced intracellular calcium mobilization, 11-point curves. (A change in cytosolic calcium serves as a functional read-out for many receptors and channels.)

Broadly, the IC50 is the point on the concentration scale where inhibition reaches its midpoint.

Structures are written as SMILES.

As for `COc1cnc2c(-c3nc4c(Cl)c(F)c(OC[C@@H](C)OC(=O)Nc5cccnc5)cc4s3)cc(C)cc2n1` [Example 372, (R)-1-((4-chloro-5-fluoro-2-(2-methoxy-7-methylquinoxalin-5-yl)benzo[d]thiazol-6-yl)oxy)propan-2-yl pyridin-3-ylcarbamate], the IC50 is 1.3 nM.
On to `COc1cnc2c(-c3nc4c(Cl)c(F)c(OC[C@@H](C)OC(=O)Nc5ccc6[nH]c(=O)oc6c5)cc4s3)cc(C)cc2n1` [Example 373, (R)-1-((4-chloro-5-fluoro-2-(2-methoxy-7-methylquinoxalin-5-yl)benzo[d]thiazol-6-yl)oxy)propan-2-yl (2-oxo-2,3-dihydrobenzo[d]oxazol-6-yl)carbamate], for which the IC50 was 0.9 nM.
In the case of `COc1cnc2c(-c3nc4c(Cl)c(F)c(OC[C@@H](C)OC(=O)Nc5ccc(C(F)(F)F)nc5)cc4s3)cc(C)cc2n1` [Example 374, (R)-1-((4-chloro-5-fluoro-2-(2-methoxy-7-methylquinoxalin-5-yl)benzo[d]thiazol-6-yl)oxy)propan-2-yl (6-(trifluoromethyl)pyridin-3-yl)carbamate], the half-maximal inhibitory concentration (IC50) came out at 110 nM.
As for `COc1cnc2c(-c3nc4c(Cl)c(F)c(OC[C@@H](C)OC(=O)Nc5cnc6c(c5)CC=N6)cc4s3)cc(C)cc2n1` [Example 375, (R)-1-((4-chloro-5-fluoro-2-(2-methoxy-7-methylquinoxalin-5-yl)benzo[d]thiazol-6-yl)oxy)propan-2-yl 3H-pyrrolo [2,3-b]pyridin-5-yl carbamate], the IC50 is 1.7 nM.
Consider `COc1cnc2c(-c3nc4c(Cl)c(F)c(OC[C@@H](C)OC(=O)Nc5cnccc5C)cc4s3)cc(C)cc2n1` [Example 376, (R)-1-((4-chloro-5-fluoro-2-(2-methoxy-7-methylquinoxalin-5-yl)benzo[d]thiazol-6-yl)oxy)propan-2-yl (4-methylpyridin-3-yl) carbamate], for which the IC50 came to 72 nM.
In the case of `COc1cnc2c(-c3nc4c(Cl)c(F)c(OC[C@@H](C)OC(=O)Nc5ccc(C)nc5)cc4s3)cc(C)cc2n1` [Example 377, (R)-1-((4-chloro-5-fluoro-2-(2-methoxy-7-methylquinoxalin-5-yl)benzo[d]thiazol-6-yl)oxy)propan-2-yl (6-methylpyridin-3-yl)carbamate], the IC50 came out at 4.3 nM.
With `COC(=O)c1cc(NC(=O)OCCOc2cc3sc(-c4cc(C)cc5nc(OC)cnc45)nc3c(Cl)c2F)cn1C` [Example 378, methyl 4-(((2-((4-chloro-5-fluoro-2-(2-methoxy-7-methylquinoxalin-5-yl)benzo[d]thiazol-6-yl)oxy)ethoxy)carbonyl)amino)-1-methyl-1H-pyrrole-2-carboxylate], the IC50 was 8.7 nM.
Consider `COc1cnc2c(-c3nc4cc(F)c(OCC(COCC(C)C)OC(=O)Nc5cccnc5)cc4s3)cc(C)cc2n1` (centres unmarked) [Example 379, 1-((5-fluoro-2-(2-methoxy-7-methylquinoxalin-5-yl)benzo[d]thiazol-6-yl)oxy)-3-isobutoxypropan-2-yl pyridin-3-ylcarbamate], for which the IC50 is 1.7 nM.
For the compound `COc1cnc2c(-c3nc4cc(F)c(OCC(COCc5ccccc5)OC(=O)Nc5cccnc5)cc4s3)cc(C)cc2n1` (centres unmarked) [Example 380, 1-(benzyloxy)-3-((5-fluoro-2-(2-methoxy-7-methylquinoxalin-5-yl)benzo[d]thiazol-6-yl)oxy)propan-2-yl pyridin-3-ylcarbamate], the IC50 is 2.3 nM.
Consider `COc1cnc2c(-c3nc4c(Cl)c(F)c(OCCOC(=O)Nc5csc(Cl)n5)cc4s3)cc(C)cc2n1` [Example 383, 2-((4-chloro-5-fluoro-2-(2-methoxy-7-methylquinoxalin-5-yl)benzo[d]thiazol-6-yl)oxy)ethyl (2-chlorothiazol-4-yl)carbamate], for which the IC50 was determined as 590 nM.
The same measure for `COc1cnc2c(-c3nc4c(Cl)c(F)c(OCCOC(=O)Nc5cncs5)cc4s3)cc(C)cc2n1` [Example 384, 2-((4-chloro-5-fluoro-2-(2-methoxy-7-methylquinoxalin-5-yl)benzo[d]thiazol-6-yl)oxy)ethyl thiazol-5-ylcarbamate]: 18 nM; for `COc1cnc2c(-c3nc4c(Cl)c(F)c(OC[C@@H](C)OC(=O)Nc5ccc(CO)nc5)cc4s3)cc(C)cc2n1` [Example 385, (R)-1-((4-chloro-5-fluoro-2-(2-methoxy-7-methylquinoxalin-5-yl)benzo[d]thiazol-6-yl)oxy)propan-2-yl (6-(hydroxymethyl)pyridin-3-yl)carbamate]: 2.3 nM; for `COc1cnc2c(-c3nc4cc(F)c(O[C@@H](C)[C@@H](C)OC(=O)Nc5cnc(C)nc5)cc4s3)cc(C)cc2n1` [Example 386, (2R,3S)-3-((5-fluoro-2-(2-methoxy-7-methylquinoxalin-5-yl)benzo[d]thiazol-6-yl)oxy)butan-2-yl (2-methylpyrimidin-5-yl)carbamate]: 7.8 nM.
Then `COc1cnc2c(-c3nc4cc(F)c(O[C@@H](C)[C@@H](C)OC(=O)Nc5ccc(CCO)nc5)cc4s3)cc(C)cc2n1` [Example 387, (2R,3S)-3-((5-fluoro-2-(2-methoxy-7-methylquinoxalin-5-yl)benzo[d]thiazol-6-yl)oxy)butan-2-yl (6-(2-hydroxyethyl)pyridin-3-yl)carbamate], with 1.5 nM.
The same measure for `COc1cnc2c(-c3nc4cc(F)c(O[C@@H](C)[C@@H](C)OC(=O)Nc5ccnc(OCCO)c5)cc4s3)cc(C)cc2n1` [Example 388, (2R,3S)-3-((5-fluoro-2-(2-methoxy-7-methylquinoxalin-5-yl)benzo[d]thiazol-6-yl)oxy)butan-2-yl (2-(2-hydroxyethoxy)pyridin-4-yl)carbamate]: 0.7 nM.
For the compound `CCOc1cnc2c(-c3nc4cc(F)c(O[C@@H](C)[C@@H](C)OC(=O)Nc5cnc(C)nc5)cc4s3)cc(C)cc2n1` [Example 389, (2R,3S)-3-((2-(2-ethoxy-7-methylquinoxalin-5-yl)-5-fluorobenzo[d]thiazol-6-yl)oxy)butan-2-yl (2-methylpyrimidin-5-yl)carbamate], the IC50 stood at 0.4 nM.
For `CNc1cnc2c(-c3nc4cc(F)c(O[C@@H](C)[C@@H](C)OC(=O)Nc5cnc(C)nc5)cc4s3)cc(C)cc2n1` [Example 390, (2R,3S)-3-((5-fluoro-2-(7-methyl-2-(methylamino)quinoxalin-5-yl)benzo[d]thiazol-6-yl)oxy)butan-2-yl (2-methylpyrimidin-5-yl)carbamate], the IC50 is 3.6 nM.
Regarding `COc1cnc2c(-c3nc4c(Cl)c(F)c(OCCOC(=O)Nc5ccc(C#N)nc5)cc4s3)cc(C)cc2n1` [Example 395, 2-((4-chloro-5-fluoro-2-(2-methoxy-7-methylquinoxalin-5-yl)benzo[d]thiazol-6-yl)oxy)ethyl (6-cyanopyridin-3-yl)carbamate], the IC50 came to 5.8 nM.
Then `COc1cnc2c(-c3nc4c(Cl)c(F)c(OCCOC(=O)NCc5ccccn5)cc4s3)cc(C)cc2n1` [Example 396, 2-((4-chloro-5-fluoro-2-(2-methoxy-7-methylquinoxalin-5-yl)benzo[d]thiazol-6-yl)oxy)ethyl (pyridin-2-ylmethyl)carbamate], with 4.6 nM; and `COc1cnc2c(-c3nc4c(Cl)c(F)c(OCCOC(=O)NCc5cn(C)cn5)cc4s3)cc(C)cc2n1` [Example 397, 2-((4-chloro-5-fluoro-2-(2-methoxy-7-methylquinoxalin-5-yl)benzo[d]thiazol-6-yl)oxy)ethyl ((1-methyl-1H-imidazol-4-yl)methyl)carbamate], with 210 nM; and `COc1cnc2c(-c3nc4c(Cl)c(F)c(OCCOC(=O)NCc5ccn(C)n5)cc4s3)cc(C)cc2n1` [Example 398, 2-((4-chloro-5-fluoro-2-(2-methoxy-7-methylquinoxalin-5-yl)benzo[d]thiazol-6-yl)oxy)ethyl ((1-methyl-1H-pyrazol-3-yl)methyl)carbamate], with 8.6 nM.
With `COc1cnc2c(-c3nc4c(Cl)c(F)c(OCCOC(=O)NCc5cnn(C)c5)cc4s3)cc(C)cc2n1` [Example 399, 2-((4-chloro-5-fluoro-2-(2-methoxy-7-methylquinoxalin-5-yl)benzo[d]thiazol-6-yl)oxy)ethyl ((1-methyl-1H-pyrazol-4-yl)methyl)carbamate], the 50% inhibitory concentration (IC50) was 3.9 nM.
The same measure for `COc1cnc2c(-c3nc4c(Cl)c(F)c(OC[C@@H](C)OC(=O)Nc5cnc(C#N)nc5)cc4s3)cc(C)cc2n1` [Example 400, (R)-1-((4-chloro-5-fluoro-2-(2-methoxy-7-methylquinoxalin-5-yl)benzo[d]thiazol-6-yl)oxy)propan-2-yl (2-cyanopyrimidin-5-yl)carbamate]: 2 nM; for `COc1cnc2c(-c3nc4c(Cl)c(F)c(OC[C@@H](C)OC(=O)Nc5cnc(Cl)nc5)cc4s3)cc(C)cc2n1` [Example 401, (R)-1-((4-chloro-5-fluoro-2-(2-methoxy-7-methylquinoxalin-5-yl)benzo[d]thiazol-6-yl)oxy)propan-2-yl (2-chloropyrimidin-5-yl)carbamate]: 2.7 nM; for `COc1cnc2c(-c3nc4c(Cl)c(F)c(OC[C@@H](C)OC(=O)Nc5cnc(F)c(C)c5)cc4s3)cc(C)cc2n1` [Example 402, (R)-1-((4-chloro-5-fluoro-2-(2-methoxy-7-methylquinoxalin-5-yl)benzo[d]thiazol-6-yl)oxy)propan-2-yl (6-fluoro-5-methylpyridin-3-yl)carbamate]: 3.7 nM.
Then `COc1cnc2c(-c3nc4c(Cl)c(F)c(OC[C@@H](C)OC(=O)Nc5ccc(Br)nc5)cc4s3)cc(C)cc2n1` [Example 403, (R)-1-((4-chloro-5-fluoro-2-(2-methoxy-7-methylquinoxalin-5-yl)benzo[d]thiazol-6-yl)oxy)propan-2-yl (6-bromopyridin-3-yl)carbamate], with 1.7 nM.
